Measurements published in patent publication US20240033244A1, “COMPOSITIONS AND METHODS FOR INHIBITING YTHDF1” (SHANGHAI INSTITUTE OF MATERIA MEDICA, CHINESE ACADEMY OF …, priority 2020, published 2024).

How the values were obtained:
[1] = tested on: classical DCs in draining lymph node; assay: Ex vivo cross-priming by DCs sorted from draining lymph node of treated mice; assay type: in vivo, mouse; settings: four DC subtypes from SAA treated B16-OVA bearing mice, day 12
Description: (§1) For in vitro cross-presentation study, mature FLT3L-DCs were harvested on day 9 and purified by EasySep Mouse CD11 c Positive Selection Kit II, then treated with 10 μM SAA or DMSO in IMDM medium (contain 10% bovine and 100 ng/mL FLT3L) for 10 h. […] Then antigen-obtained DCs were purified and co-cultured with naïve T cells from OT-1 mice at a ratio of 1:10 for 96 h. The co-culture medium was 1640 RPMI contains 10% fetal bovine with or without 1 μg/mL OT-1 (OVA 257-264) peptide. For ex vivo DCs cross-presentation assay, four types of DCs (migration CD11b DC, migration CD103′ DC, resident CD11b DC and resident CD8^+ DC) were sorted in draining lymph node from SAA treated B16-OVA bearing mice at day 12. These DCs were co-cultured with OT-1 naïve T cells in the ratio of 1:10 for 96 hours with or without OT-1 peptide. Supernatant IFN-γ production was detected via CBA assay.
Further, four types of classical DCs (resident CD11b^+, resident CD8α^+, migratory CD11b^+ and migratory CD103^+) in draining lymph node were sorted from SAA treated B16-OVA bearing wild-type mice on day 12. These DCs were co-cultured with OT-I T cells for 72 hours. Then, IFN-γ production was assessed by IFN-γ cytometric bead array.

[2] = target: T1, YTHDF1 (361-559) (Homo sapiens, UniProt Q9BYJ9); assay: Microscale thermophoresis (MST) assay; assay type: binding
T1 construct: GST (N, cleaved yes); made in house; host or cells: E. coli BL21 (DE3)
T1 sequence (Q9BYJ9 with tags, fused parts or gaps): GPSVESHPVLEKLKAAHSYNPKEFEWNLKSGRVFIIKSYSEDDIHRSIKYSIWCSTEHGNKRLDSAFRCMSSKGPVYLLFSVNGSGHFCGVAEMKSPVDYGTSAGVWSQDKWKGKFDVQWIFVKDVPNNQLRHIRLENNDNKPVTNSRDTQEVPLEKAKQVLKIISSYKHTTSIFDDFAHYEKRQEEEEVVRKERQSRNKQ
Description: Microscale Thermophoresis (MST) assay was performed on MiscroScale Thermophoresis instrument (NanoTemper Technologies) at room temperature using the label-free method. […] And the YTHDF1 (361-559) was diluted to 4 μM with MST buffer. […] Before measuring, the mixture was centrifuged at 13000 rpm for 10 minutes at 4° C. At last, the samples were collected by Monolith NT™ Automated Label Free capillaries (NanoTemper Technologies) and the measurement was started. […] Affinity Analysis Software v2.3 (NanoTemper Technologies).

[3] = tested on: B16-OVA tumor; assay: B16-OVA tumor growth in Rag1-/- versus wild-type mice; assay type: in vivo, mouse; settings: 1×10^5 B16-OVA, 10 μM SAA day 7 to day 9
Description: (§2) For B6 mice tumor growth, 5×10^5 B16-OVA or 1×10^6 E.G7-OVA tumor cells were inoculated subcutaneously (s.c.) into the flank of mice. Tumor length (a) and width (b) was measured every two days and tumor volume was calculated by the formula ab^2/2. For the inhibitor treatment, 10 μM SAA or DMSO was injected intraperitoneally (i.p.) on day 9 and 11 after tumor inoculation. For other mice model (rag1^−/− and Ythdf1 conditional knockout), times and dose of inhibitor treatment was the same. For α-PD-L1 and SAA combination treatment, 5×10^5 B16-OVA tumor cells were inoculated subcutaneously into the flank of mice. 100 μg α-PD-L1 antibody (clone 10F.9G2) or rat immunoglobulin were administered at day 9 after tumor inoculation. 10 μM SAA or DMSO was administered in the same way on day 9 and 11 after tumor injection.
T/B cell-deficient Rag1^−/− mice were inoculated with 1×10^5 B16-OVA cells, and 10 μM SAA was then injected to each mouse from day 7 to day 9, and tumor growth was monitored, wild type mice were used as control group.

[4] = tested on: classical DCs in draining lymph node; assay: Ex vivo direct-priming by DCs sorted from draining lymph node of treated mice with OT-I peptide; assay type: in vivo, mouse; settings: four DC subtypes from SAA treated mice, 1 μg/mL OT-I peptide
Description: as §1
Dendritic cells can activate T cells through cross-priming and/or direct-priming. In direct-priming process, DCs could stimulate T cells via surface co-stimulatory molecules such as CD80/CD86 or cytokines related with T cell activation. […] IFN-γ production was assessed by IFN-γ cytometric bead array. […] Then, IFN-γ production was assessed by IFN-γ cytometric bead array.

[5] = tested on: FLT3L-DCs; assay: FLT3L-DC direct-priming of OT-I T cells in vitro with OT-I peptide; assay type: cell-based, mouse; settings: 1 μg/mL OT-I peptide
Description: Then antigen-obtained DCs were purified and co-cultured with naïve T cells from OT-1 mice at a ratio of 1:10 for 96 h. The co-culture medium was 1640 RPMI contains 10% fetal bovine with or without 1 μg/mL OT-1 (OVA 257-264) peptide. For ex vivo DCs cross-presentation assay, four types of DCs (migration CD11b DC, migration CD103′ DC, resident CD11b DC and resident CD8^+ DC) were sorted in draining lymph node from SAA treated B16-OVA bearing mice at day 12. These DCs were co-cultured with OT-1 naïve T cells in the ratio of 1:10 for 96 hours with or without OT-1 peptide. Supernatant IFN-γ production was detected via CBA assay.
Dendritic cells can activate T cells through cross-priming and/or direct-priming. In direct-priming process, DCs could stimulate T cells via surface co-stimulatory molecules such as CD80/CD86 or cytokines related with T cell activation. To evaluate whether the direct priming function was also affected after SAA administration, bone marrow derived cells (wildtype or Ythdf1 gene deficient) were cultured with FLT3L for 9 days to get FLT3L-DC and these DCs were treated with 10 μM SAA for 12 hours, then, FLT3L-DCs were co-cultured with necrotic B16-OVA tumor cell for 6 hours. […] IFN-γ production was assessed by IFN-γ cytometric bead array. […] Then, IFN-γ production was assessed by IFN-γ cytometric bead array.

[6] = target: T1, YTHDF1 (361-559); assay: SPR binding assay
Description: SPR binding assay was conducted at 25° C. on the Biacore T200 instrument (GE Healthcare). YTHDF1 (361-559) was covalently immobilized on a CM5 chip via standard amine-coupling procedure in the condition of 10 mM sodium acetate (pH 5.5).

[7] = tested on: B16-OVA tumor; assay: B16-OVA tumor growth, SAA with anti-PD-L1 antibody; assay type: in vivo, mouse; settings: 5×10^5 B16-OVA; 10 μM SAA day 9 and 11; 100 ug anti-PD-L1 antibody day 9
Description: as §2
Wild-type mice were injected subcutaneously with 5×10^5 B16-OVA cells. 10 μM SAA was injected to each mouse on day 9 and day 11. Mice were also treated with 100 ug anti-PD-L1 antibody on day 9. Tumor growth was monitored over time.

- Kd [2]: 4.7 µM
- Kd [6]: 2.52 µM
Structure (SMILES): O=C(/C=C/c1ccc(O)c(O)c1/C=C/c1ccc(O)c(O)c1)O[C@H](Cc1ccc(O)c(O)c1)C(=O)O [SAA, Salvianolic Acid A]
- cross-priming of T cells (IFN-γ production) [1]: better cross-priming of T cells than DMSO treated group
- tumor growth [3]: tumor growth was arrested
- direct-priming capacity of DC subtypes (IFN-γ production) [4]: 3 of the 4 DC subtypes showed improved direct-priming capacity
- FLT3L-DC direct-priming function (IFN-γ production) [5]: could not enhance
- B16-OVA tumor growth [7]: partially inhibit
